Molecular target: T1, hERG (Kv11.1) (Homo sapiens, UniProt Q12809)
T1 construct: gene KCNH2
Test: automated whole-cell patch clamp (QPatch), CHO hERG DUO cells, three-point dose-response
Type: cell-based

T1 sequence (Q12809 whole entry): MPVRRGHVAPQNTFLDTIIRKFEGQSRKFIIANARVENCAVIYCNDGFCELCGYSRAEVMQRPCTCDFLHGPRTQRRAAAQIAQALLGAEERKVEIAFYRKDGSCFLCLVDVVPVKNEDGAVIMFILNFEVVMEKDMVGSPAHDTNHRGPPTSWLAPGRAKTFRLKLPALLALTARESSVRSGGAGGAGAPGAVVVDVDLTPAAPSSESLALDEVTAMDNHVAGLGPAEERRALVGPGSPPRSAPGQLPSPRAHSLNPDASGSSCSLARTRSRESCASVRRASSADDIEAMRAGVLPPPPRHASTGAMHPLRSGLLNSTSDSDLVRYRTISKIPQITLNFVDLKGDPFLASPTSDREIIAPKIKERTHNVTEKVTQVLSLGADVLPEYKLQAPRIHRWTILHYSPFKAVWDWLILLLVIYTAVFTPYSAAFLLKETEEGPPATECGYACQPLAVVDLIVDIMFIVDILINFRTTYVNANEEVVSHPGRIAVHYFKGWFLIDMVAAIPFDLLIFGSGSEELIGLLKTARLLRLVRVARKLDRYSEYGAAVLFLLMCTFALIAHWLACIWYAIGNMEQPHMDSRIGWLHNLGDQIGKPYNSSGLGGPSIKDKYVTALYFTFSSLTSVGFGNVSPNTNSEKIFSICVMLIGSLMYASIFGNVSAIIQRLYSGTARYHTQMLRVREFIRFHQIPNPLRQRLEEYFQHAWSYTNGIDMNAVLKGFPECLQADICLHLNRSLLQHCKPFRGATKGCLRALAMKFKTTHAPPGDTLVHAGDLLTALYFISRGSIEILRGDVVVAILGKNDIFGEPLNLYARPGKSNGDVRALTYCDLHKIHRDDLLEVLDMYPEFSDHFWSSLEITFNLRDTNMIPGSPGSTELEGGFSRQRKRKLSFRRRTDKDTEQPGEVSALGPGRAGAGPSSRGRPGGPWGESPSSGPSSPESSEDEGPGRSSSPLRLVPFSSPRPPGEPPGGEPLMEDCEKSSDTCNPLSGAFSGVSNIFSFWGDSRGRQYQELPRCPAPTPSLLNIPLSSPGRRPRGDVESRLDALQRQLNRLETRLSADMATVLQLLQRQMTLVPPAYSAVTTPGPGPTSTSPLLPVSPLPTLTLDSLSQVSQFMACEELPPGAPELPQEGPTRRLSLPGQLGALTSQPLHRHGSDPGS

Compound: COc1cc(N)c(Cl)cc1C(=O)NC1CCN(CCCOc2ccc(F)cc2)CC1OC (stereo not shown) [Cisapride]
- automated whole-cell patch clamp (QPatch), CHO hERG DUO cells, three-point dose-: superimposed to visualize the effect of increasing concentrations of the known hERG blocker Cisapride

Source: PMC4151236, “Early identification of hERG liability in drug discovery programs by automated patch clamp” (Frontiers in Pharmacology, 2014)
